Reference: patent US10905660B2, “Microparticles” (NovaBiotics Limited, priority 2016, dated 2021)

What was measured:
Type in all cases: in vivo
[1] = system: Pseudomonas aeruginosa ATCC 27853; assay: Mouse IN neutropenic lung burden model, Lynovex Upperton product (mannitol-based) study; settings: 0.188 mg inhalation formulation, intratracheal, 24 h post-infection; highly variable burdens
Protocol: (§1) Assessment of Efficacy of Lynovex (Cysteamine) Prep in a Mouse IN Neutropenic model of Pseudomonas aeruginosa ATCC 27853 (Lung Burden Model)
(§2) Animals were immunosuppressed/pre-conditioned with either 200 mg/kg or 150 mg/kg cyclophosphamide. Lynovex, chemical name cysteamine, and vehicle were either prepared either as Lynovex and lactose vehicle, or Lynovex and mannitol-based vehicle (both provided by Upperton (Upperton product)). These were prepared for treatment and vehicle-control alone respectively, and in combination. Tobramycin was prepared as an inhalation formulation in lactose. All treatments were administered using a Penn Century device. Phosphate buffered saline (PBS) and Pseudomonas selective agar were required for bacterial tissue burden.
Male CD1 mice (n=6 for treatment groups, plus five in pre-treatment group, totalling 35 mice) were used in this study. On day −4, the mice were immunosuppressed/pre-conditioned with 200 mg/kg cyclophosphamide intraperitoneally; and with 150 mg/kg cyclophosphamide intraperitoneally on day −1. […]
(§3) The lung tissue burden of each animal, at the clinical end point of 24 h post-infection, was determined. The lungs were homogenised in 2 ml PBS, serially diluted in PBS and plated onto Pseudomonas selective agar before quantification after 24-48 h at 37° C.

[2] = Mouse weights before and after infection; settings: P. aeruginosa infected neutropenic CD1 mice, Upperton product study (FIG. 6)
Protocol: (§4) Male CD1 mice (n=6 for treatment groups, plus five in pre-treatment group, totalling 35 mice) were used in this study. On day −4, the mice were immunosuppressed/pre-conditioned with 200 mg/kg cyclophosphamide intraperitoneally; and with 150 mg/kg cyclophosphamide intraperitoneally on day −1. An infection was established with P. aeruginosa ATCC27853, with an inoculum of 5×10^6 cfu/ml, administered intranasally in a volume of 40 μl following anaesthetisation with a ketamine/xylazine anaesthetic cocktail for 15 minutes, for the Lynovex prepared in lactose study, and an inoculum of 4×10^6 for the Upperton Lynovex product.
In a different study, Lynovex was administered at the following doses: 3 mg 5% Lynovex and 3 mg 10% Lynovex. Lynovex in combination with Tobramycin as follows: 3 mg 5% Lynovex+Tobramycin 0.188 mg in 1.5 mg vehicle, 3 mg 10% Lynovex+Tobramycin 0.188 mg in 1.5 mg Vehicle (mannitol-based, provided by Upperton) and a Tobramycin only control (0.188 mg/dose in lactose vehicle). The treatments were administered once approximately 10 minutes after infection.
Additionally, mouse weights were recorded before and after infection. Mice treated with vehicle, Lynovex monotherapy or Tobramycin monotherapy lost weight following infection. […]

[3] = system: Pseudomonas aeruginosa ATCC 27853; assay: Mouse IN neutropenic lung burden model, Lynovex/lactose study; settings: 24 h post-infection
Protocol: as §1, §2, §4
All treatments were administered intratracheally using a Penn Century device.
Lynovex (cysteamine) was administered at 1.5 mg alone, and in combination with lactose at the following concentrations: Lynovex 0.75 mg+2.25 mg lactose powder, Lynovex 1.5 mg+1.5 mg lactose powder, Lynovex 2.25 mg+0.75 mg, along with a vehicle only control of 3 mg lactose. In addition, Tobramycin at 188 μg/dose was administered, as an inhaled formulation which was mixed with lactose to aid measurement. The treatments were administered approximately 5 minutes after infection.
as §3

With `NC[C@H]1O[C@H](O[C@H]2[C@H](O)[C@@H](O[C@H]3O[C@H](CO)[C@@H](O)[C@H](N)[C@H]3O)[C@H](N)C[C@@H]2N)[C@H](N)C[C@@H]1O` [Tobramycin] the “average reduction in lung burden compared with vehicle-treated mice” value [1] was 1.61 log10 cfu/g, the “mouse weight following infection” value [2] was “lost weight” and the “animals that cleared the infection to below the limit of detection” value ([3]; 0.188 mg inhalation formulation, intratracheal) was 5/6. The “lung burden compared with vehicle-treated mice” value ([3]; 0.188 mg inhalation formulation, intratracheal, CD1 mice, P=0.0097 Kruskal Wallis test) was “statistically significant reduction in lung burden”.

For `NCCS` [Lynovex, cysteamine], the “mice clearing the infection to below the detection limit” value ([3]; 1.5 mg intratracheal) was 5/6, the “lung burden compared to vehicle” value ([3]; 1.5 mg intratracheal, P=0.0072) was “reduced the lung burden” and the “mice clearing the infection to below the detection limit” value ([3]; 2.25 mg intratracheal) was 4/6. The “lung burden compared to vehicle” value ([3]; 2.25 mg intratracheal, P=0.0349) was “reduced the lung burden”.
